Patent US20260109690A1, “HDAC6 INHIBITORS AND METHOD OF THEIR USE” (Baerenkraft Therapeutics, LLC., priority 2024, published 2026)
Read-outs that look alike come from different tables or passages of the source.

How the values were obtained:
HDAC3 = HDAC3 (Homo sapiens, UniProt O15379); assay: HDAC selectivity panel: HDAC3; assay type: biochemical
[1] = system: acetyl-α-tubulin in SH-SY5Y neuroblastoma cells; assay: ICC dose response of acetylated alpha-tubulin in SH-SY5Y neuroblastoma cells; assay type: cell-based; conditions: 24-hour treatment
Protocol: Cell Seeding: Seeded at 2,000 cells/well in 384-well plates 24-hours prior to compound treatment
Compound Treatment: 24-hour
HDAC6 inhibitor compounds tested (1 control and 6 experimental)
9-point dose-response curves for all compounds, starting at 30 μM with 3-fold serial dilutions
4 technical replicate wells per condition tested
Cells were seeded in 90 μL media. 10 μL of 10× compound solutions added to 90 μL media for 24-hours
Fixation: 4% PFA for 15 minutes (after removing all media and washing with DPBS+0.1% Tween-20)
Permeabilization: 0.1% Triton X-100 for 20 minutes
Primary antibody: acetyl-α-tubulin (Lys40/D20G3; Cell Signaling Technologies, #5335S) 1:1000 dilution in DPBS+5% goat serum+0.1% Tween-20, 1 hour at room temp on orbital shaker
Secondary antibody: Goat anti-Rabbit IgG (H+L) Highly Cross-Adsorbed Secondary Antibody, Alexa Fluor™ Plus 488, Catalog #A32731, 1:1000 dilution+Hoechst 33342, 1:10,000 dilution in DPBS+5% goat serum+0.1% Tween-20, 1 hour at room temp on orbital shaker
High-content imaging system: Image Xpress Micro Confocal from Molecular Devices […]
Integrated fluorescence intensity of acetyl-α-tubulin was calculated using an automated image-analysis algorithm in Meta Xpress software
Average intensity per cell was calculated by dividing the integrated fluorescence intensity by the number of nuclei. […]

[2] = system: B6SJL.SOD1-G93A transgenic mouse model of amyotrophic lateral sclerosis; assay: ALS mouse model: beam walk test; assay type: in vivo, mice
Excerpt: Beam walk test was used for the assessment of motor coordination or balance of animals. The beam apparatus consisted of 1-meter beams with a flat surface of 6 mm width resting 50 cm above the tabletop on two poles. Animals were placed at one end of the beam, allowed to traverse the beam and reach another end with a cage filled with the home cage bedding. Animals were trained on beams for 2 consecutive days, 3 trials per day with 30 s inter-trial interval. On day 3 (day of test), animals were tested on the beam. A total 3 trials were performed, and time taken to traverse the beam & number of slips were recorded, average data was analyzed. For animals unable to traverse the beam, a cutoff time of 60 s was assigned.
Note: Number of slips were recorded until week 12 due to disease progression after that.
Note: Behavioral tests were performed once in two weeks, i.e. at week 10, 12, 14 and 16.

[3] = Oral bioavailability and brain/CSF uptake study of compound I-8; assay type: in vivo, male Swiss albino mice
Protocol: Compound I-8 was evaluated for bioavailability, pharmacokinetics and brain/csf to plasma distribution in mouse plasma following oral and intravenous administration of compound I-8 in male Swiss albino mouse.
A total of 24 male Swiss albino mouse were allotted for the study, Animals were allotted to 2 groups containing 12 mice/group, on day of dosing all the animals were fasted 3 hours before dosing. The test formulation was administered as a single dose by intravenous and oral route via tail vein and oral gavage needle at a dose of 1 and 5 mg/kg with a dose volume of 5 and 10 mL/kg, respectively.
Approximately 0.1 mL of blood sample from each animal was collected via retro orbital at predetermined time points (3 animals/timepoint) in pre-labeled Eppendorf tubes containing anticoagulant. After blood collection at 2 h, 4 h and 6 h, CSF and whole brain was withdrawn, and brain tissue was homogenized as a terminal sampling. Blood samples were centrifuged at 10000 rpm for 5 min under refrigeration (2-4° C.) within 0.5 h to obtain plasma. The separated plasma samples were collected in pre labeled tubes within 60 min of separation and stored at −20° C. up to 24 h. Post 24 h sample collection, all plasma samples were transferred to deep freezer custodian to store below or at −70° C. until shipment.
Brain tissues were blotted and dried and then transferred to 15 mL falcon tubes. Initially all tissue samples were stored at −20±3° C. Later all brain tissue samples were homogenized with PBS at 1:4 ratio and the Brain homogenate was transferred to deep freezer (−70±10° C.) and stored until bioanalysis.
Mouse plasma, CSF and Brain homogenate concentrations were analyzed to quantify compound I-8 using a fit-for purpose LC-MS/MS method with LLOQ of 0.98 ng/mL. The PK parameters were evaluated using Phoenix WinNonlin® Ent-Version 8.3 by non-compartmental analysis.

HDAC9 = HDAC9 (Homo sapiens, UniProt Q9UKV0); assay: HDAC selectivity panel: HDAC9; assay type: biochemical
HDAC9, sequence (Q9UKV0 whole entry, species assumed): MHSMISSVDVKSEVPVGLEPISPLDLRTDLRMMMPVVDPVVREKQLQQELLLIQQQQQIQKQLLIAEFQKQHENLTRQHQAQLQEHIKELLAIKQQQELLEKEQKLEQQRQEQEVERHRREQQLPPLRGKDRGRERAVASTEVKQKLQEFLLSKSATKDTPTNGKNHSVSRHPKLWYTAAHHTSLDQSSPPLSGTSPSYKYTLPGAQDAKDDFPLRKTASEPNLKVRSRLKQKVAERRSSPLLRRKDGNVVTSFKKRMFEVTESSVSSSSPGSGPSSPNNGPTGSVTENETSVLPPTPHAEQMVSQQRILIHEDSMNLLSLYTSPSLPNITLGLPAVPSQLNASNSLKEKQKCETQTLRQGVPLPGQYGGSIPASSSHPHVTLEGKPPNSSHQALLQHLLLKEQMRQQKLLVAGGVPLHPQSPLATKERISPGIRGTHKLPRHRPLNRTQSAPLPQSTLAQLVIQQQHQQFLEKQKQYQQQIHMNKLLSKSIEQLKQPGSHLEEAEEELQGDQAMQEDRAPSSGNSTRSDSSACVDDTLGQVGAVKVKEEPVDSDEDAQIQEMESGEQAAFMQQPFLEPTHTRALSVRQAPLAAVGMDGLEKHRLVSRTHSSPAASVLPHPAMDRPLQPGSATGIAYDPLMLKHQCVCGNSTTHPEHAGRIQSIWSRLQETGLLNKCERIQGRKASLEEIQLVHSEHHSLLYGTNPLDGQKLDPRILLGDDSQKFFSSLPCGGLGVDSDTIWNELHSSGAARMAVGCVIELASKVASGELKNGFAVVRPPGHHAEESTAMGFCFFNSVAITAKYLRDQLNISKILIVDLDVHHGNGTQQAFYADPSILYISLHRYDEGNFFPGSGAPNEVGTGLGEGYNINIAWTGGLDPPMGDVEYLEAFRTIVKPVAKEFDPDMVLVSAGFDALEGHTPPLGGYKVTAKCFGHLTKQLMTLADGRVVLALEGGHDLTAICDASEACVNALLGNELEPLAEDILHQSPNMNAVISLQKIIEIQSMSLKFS

[4] = ALS mouse model: bioanalysis of plasma, brain and CSF; assay type: in vivo, mice; conditions: 4-hour timepoint, after week 16
Protocol: At 16 weeks (9+7-week behavioral assessment), animals were dosed either with the vehicle or test compound and 4 hours post dosing, CSF, blood, and brain were collected for bioanalysis. Muscles (tibialis, soleus and gastrocnemius) and spinal cord were collected for histology (optional).
After completion of week 16 (9+7-week behavioral assessment), animals were dosed with the vehicle or test compound. 4 hours post dosing, CSF and blood (retro-orbitally) were collected under mild isoflurane anesthesia. Blood was centrifuged at 5000 rpm for 10 minutes at 4° C. and separated plasma was utilized for plasma drug concentration analysis. Then animals were euthanized, and brain tissue was collected. CSF, plasma and brain tissue samples from G3 and G4 were prepared for bioanalysis and compounds were extracted, and the supernatant was injected for LC-MS/MS bioanalysis. Drug concentration of compound I-8 was calculated from respective calibration curve for G3 and G4.

[5] = male, Swiss albino, mouse, plasma, G1, intravenous 1 mg/kg
[6] = male, Swiss albino, mouse, plasma, G2, oral 5 mg/kg
[7] = male, Swiss albino, G1, intravenous 1 mg/kg, mouse plasma
[8] = male, Swiss albino, G2, oral 5 mg/kg, mouse plasma
[9] = G4 50 mg/kg p.o. (30 mg/kg until day 33)

HDAC3, sequence (O15379 whole entry, species assumed): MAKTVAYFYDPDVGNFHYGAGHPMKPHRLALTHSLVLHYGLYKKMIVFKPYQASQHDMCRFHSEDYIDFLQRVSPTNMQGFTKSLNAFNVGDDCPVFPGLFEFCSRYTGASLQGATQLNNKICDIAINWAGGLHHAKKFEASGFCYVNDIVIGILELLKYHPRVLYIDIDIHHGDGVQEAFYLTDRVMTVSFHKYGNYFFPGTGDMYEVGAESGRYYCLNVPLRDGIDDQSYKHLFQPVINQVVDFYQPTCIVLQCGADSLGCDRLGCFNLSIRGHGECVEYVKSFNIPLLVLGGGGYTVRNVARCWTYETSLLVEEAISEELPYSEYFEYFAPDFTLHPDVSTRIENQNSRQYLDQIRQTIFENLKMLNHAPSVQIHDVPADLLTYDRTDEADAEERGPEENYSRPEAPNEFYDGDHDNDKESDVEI
HDAC3, sequence (Q9Y618 395-489 partner limits assumed, species assumed): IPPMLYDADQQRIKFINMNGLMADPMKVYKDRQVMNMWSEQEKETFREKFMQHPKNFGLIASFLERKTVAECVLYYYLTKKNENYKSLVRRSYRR

Q: Which results are given for CC1CN(Cc2ccc(Nc3nccc(-c4ccc(C(=O)NO)cc4)n3)cc2F)CCO1 (racemic) [Compound I-8, 4-(2-((3-fluoro-4-((2-methylmorpholino)methyl)phenyl)amino)pyrimidin-4-yl)-N-hydroxybenzamide]?
A: IC50 (HDAC3): 0.99 µM; increase in acetyl-α-tubulin (ICC) [1]: induce acetylation of α-tubulin in SH-SY5Y neuroblastoma cells in a dose-dependent manner; Beam Walk Test- Latency to traverse the beam ([2]; G3 15 mg/kg p.o. QD, Week 10): 21.37 ± 5.99 s; Beam Walk Test: Number of Slips ([2]; G3 15 mg/kg p.o. QD, Week 10): 1.42 ± 0.14; Beam Walk Test- Latency to traverse the beam ([2]; G3 15 mg/kg p.o. QD, Week 12): 25.96 ± 5.59 s; Beam Walk Test: Number of Slips ([2]; G3 15 mg/kg p.o. QD, Week 12): 0.93 ± 0.19; Beam Walk Test- Latency to traverse the beam ([2]; G3 15 mg/kg p.o. QD, Week 14): 20.52 ± 6.85 s; Beam Walk Test- Latency to traverse the beam ([2]; G3 15 mg/kg p.o. QD, Week 16): 58.21 ± 1.79 s; Beam Walk Test- Latency to traverse the beam ([2]; G4 30 mg/kg (50 mg/kg from day 34) p.o. QD, Week 10): 17.04 ± 5.71 s; Beam Walk Test- Latency to traverse the beam ([2]; G4 30 mg/kg (50 mg/kg from day 34) p.o. QD, Week 12): 29.83 ± 6.82 s; Beam Walk Test- Latency to traverse the beam ([2]; G4 30 mg/kg (50 mg/kg from day 34) p.o. QD, Week 14): 25.29 ± 7.64 s; Beam Walk Test- Latency to traverse the beam ([2]; G4 30 mg/kg (50 mg/kg from day 34) p.o. QD, Week 16, cutoff time 60 s): 60 ± 0 s; Beam Walk Test: Number of Slips ([2]; G4 30 mg/kg p.o. QD, Week 10): 1.33 ± 0.40; Beam Walk Test: Number of Slips ([2]; G4 30 mg/kg p.o. QD, Week 12): 1.38 ± 0.34; latency to traverse the beam vs. G2 ([2]; G4, week 10): significant reduction in latency to traverse the beam; motor balance compared to G2, disease control group ([2]; G4, week 10): significant improvement was observed in motor balance; Steady state and central compartment volume of distribution ([3]; intravenous 1 mg/kg): very high; clearance ([3]; male, Swiss albino, mouse, plasma, iv, 1 mg/kg, G1, intravenous 1 mg/kg): ~328 mL/min/kg; Vd ([3]; male, Swiss albino, mouse, plasma, iv, 1 mg/kg, G1, intravenous 1 mg/kg, read-out: Vd): 171 L/kg; Vd ([3]; male, Swiss albino, mouse, plasma, iv, 1 mg/kg, G1, intravenous 1 mg/kg, read-out: Vss): 188 L/kg; MRT [3, 5]: 3.28 h; half-life [3, 5]: 6.03 h; MRT [3, 6]: 4.75 h; Tmax [3, 6]: 8 h; bioavailability ([3]; male, Swiss albino, mouse, plasma, G2, oral 5 mg/kg vs intravenous 1 mg/kg, read-out: % F (oral bioavailability)): 53%; AUC(0-inf) [3, 7]: 50.8 ng·h/mL; AUC(0-t) [3, 7]: 27.1 ng·h/mL; C0 [3, 7]: 27.3 ng/mL; AUC(0-t) [3, 8]: 72.3 ng·h/mL; Cmax [3, 8]: 18.3 ng/mL; lag phase in absorption ([3]; oral 5 mg/kg): no lag phase in absorption; systemic availability ([3]; oral 5 mg/kg): moderate to high systemic availability; IC50 (HDAC9): 22 µM; Brain drug concentration (Mean) ([4]; G3 15 mg/kg p.o.): 2.34; Plasma drug concentration (Mean) ([4]; G3 15 mg/kg p.o.): 12.35; Brain drug concentration (Mean) [4, 9]: 3.87; CSF drug concentration (Mean) [4, 9]: 2.70; Plasma drug concentration (Mean) [4, 9]: 136.15
